Laboratory results taken from patent US11319299B2, “Substituted carboxamides as inhibitors of WDR5 protein-protein binding” (PROPELLON THERAPEUTICS INC., priority 2016, dated 2022).

biological target: WDR5 (Homo sapiens (Human), UniProt P61964); experiment: Surface Plasmon Resonance (SPR) assay, KD and residence time; assay type: binding; settings: SPR, Table 2; read-out: WDR5 binding affinity (KD)

Kd [nM] | Compound
294 | CC(=O)Nc1cc(C(F)(F)F)c(C(=O)Nc2cc(-c3cnc(N4CCOCC4)nc3)c(F)cc2N2C[C@@H](C)N(C)[C@@H](C)C2)cn1 [Example 27, 6-acetamido-N-[4-fluoro-5-(2-morpholin-4-ylpyrimidin-5-yl)-2-[(3R,5S)-3,4,5-trimethylpiperazin-1-yl]phenyl]-4-(trifluoromethyl)pyridine-3-carboxamide]

same assay, conditions: surface plasmon resonance (SPR) assay; read-out: WDR5 binding affinity (KD)

Kd [nM] | Compound
4.06 | C[C@@H]1CN(c2cc(F)c(C3=CCOCC3)cc2NC(=O)c2c[nH]c(=O)cc2C(F)(F)F)C[C@H](C)N1C [Example 94, N-[5-(3,6-dihydro-2H-pyran-4-yl)-4-fluoro-2-[(3R,5S)-3,4,5-trimethylpiperazin-1-yl]phenyl]-6-oxo-4-(trifluoromethyl)-1H-pyridine-3-carboxamide]
3 | C[C@@H]1CN(c2cc(F)c(-c3ccnc(OCC(C)(C)C)c3)cc2NC(=O)c2c[nH]c(=O)cc2C(F)(F)F)C[C@H](C)N1C [Example 293, N-[5-[2-(2,2-dimethylpropoxy)pyridin-4-yl]-4-fluoro-2-[(3R,5S)-3,4,5-trimethylpiperazin-1-yl]phenyl]-6-oxo-4-(trifluoromethyl)-1H-pyridine-3-carboxamide]
1.39 | C[C@@H]1CN(c2cc(F)c(C3=CCN(C(=O)N4CCN(C)CC4)CC3)cc2NC(=O)c2c[nH]c(=O)cc2C(F)(F)F)C[C@H](C)N1C [Example 287, N-[4-fluoro-5-[1-(4-methylpiperazine-1-carbonyl)-3,6-dihydro-2H-pyridin-4-yl]-2-[(3R,5S)-3,4,5-trimethylpiperazin-1-yl]phenyl]-6-oxo-4-(trifluoromethyl)-1H-pyridine-3-carboxamide]

The remaining lines, values behind:

Compound | Kd [nM]
CCN(C)[C@@H]1CCN(c2cc(F)c(-c3cnc(N4CCOCC4)nc3)cc2NC(=O)c2c[nH]c(=O)cc2C(F)(F)F)C1 [Example 345, N-[4-fluoro-5-(2-morpholin-4-ylpyrimidin-5-yl)-2-[(3R)-3-[ethyl(methyl)amino]pyrrolidin-1-yl]phenyl]-6-oxo-4-(trifluoromethyl)-1H-pyridine-3-carboxamide] | 1.2
C[C@@H]1CN(c2cc(F)c(-c3cnc(N4CCOCC4)nc3)cc2NC(=O)c2cccc(O)c2)C[C@H](C)N1C [Example 281, N-[4-fluoro-5-(2-morpholin-4-ylpyrimidin-5-yl)-2-[(3R,5S)-3,4,5-trimethylpiperazin-1-yl]phenyl]-3-hydroxybenzamide] | 29.1
CC(=O)Nc1cc(C(F)(F)F)c(C(=O)Nc2cc(-c3cnc(N4CCOCC4)nc3)c(F)cc2N2C[C@@H](C)N(C)[C@@H](C)C2)cn1 [Example 27, 6-acetamido-N-[4-fluoro-5-(2-morpholin-4-ylpyrimidin-5-yl)-2-[(3R,5S)-3,4,5-trimethylpiperazin-1-yl]phenyl]-4-(trifluoromethyl)pyridine-3-carboxamide] | 294
CC(C)[C@@H]1CN(c2ncc(-c3cc(NC(=O)c4c[nH]c(=O)cc4C(F)(F)F)c(N4CCN(C)[C@H](C)C4)cc3F)cn2)CCO1 (stereo in doubt) [Example 347, N-[4-fluoro-2-[(3R)-3,4-dimethylpiperazin-1-yl]-5-[2-[(2R)-2-propan-2-ylmorpholin-4-yl]pyrimidin-5-yl]phenyl]-6-oxo-4-(trifluoromethyl)-1H-pyridine-3-carboxamide] | 0.606

same assay, conditions: surface plasmon resonance (SPR); read-out: WDR5 binding affinity (KD)

Kd [nM] | Compound
1.86 | CNC(=O)c1cc(-c2cc(NC(=O)c3c[nH]c(=O)cc3C(F)F)c(N3C[C@@H](C)N(C)[C@@H](C)C3)cc2F)ccc1F [Example 606, 4-(difluoromethyl)-N-[4-fluoro-5-[4-fluoro-3-(methylcarbamoyl)phenyl]-2-[(3R,5S)-3,4,5-trimethylpiperazin-1-yl]phenyl]-6-oxo-1H-pyridine-3-carboxamide]
1.97 | C[C@@H]1CN(c2cc(F)c(-c3ccc4c(c3)ncn4C)cc2NC(=O)c2c[nH]c(=O)cc2C(F)(F)F)C[C@H](C)N1C [Example 675, N-[4-fluoro-5-(1-methylbenzimidazol-5-yl)-2-[(3R,5S)-3,4,5-trimethylpiperazin-1-yl]phenyl]-6-oxo-4-(trifluoromethyl)-1H-pyridine-3-carboxamide]

More lines, now with the values behind:

Compound | Kd [nM]
C[C@@H]1COCCN1c1ncc(-c2cc(NC(=O)c3c[nH]c(=O)cc3C(F)(F)F)c(N3CCN(C)[C@@H](C)C3)cc2F)cn1 [Example 468, N-[4-fluoro-2-[(3S)-3,4-dimethylpiperazin-1-yl]-5-[2-[(3R)-3-methylmorpholin-4-yl]pyrimidin-5-yl]phenyl]-6-oxo-4-(trifluoromethyl)-1H-pyridine-3-carboxamide] | 2.28
COc1cc(N2CC=C(c3cc(NC(=O)c4c[nH]c(=O)cc4C(F)F)c(N4C[C@@H](C)N(C)[C@@H](C)C4)cc3F)CC2)ncn1 [Example 647, 4-(difluoromethyl)-N-[4-fluoro-5-[1-(6-methoxypyrimidin-4-yl)-3,6-dihydro-2H-pyridin-4-yl]-2-[(3R,5S)-3,4,5-trimethylpiperazin-1-yl]phenyl]-6-oxo-1H-pyridine-3-carboxamide] | 1.59
CC(C)N1CCN(c2ncc(-c3cc(NC(=O)c4cn(C)c(=O)cc4C(F)(F)F)c(N4C[C@@H](C)N(C)[C@@H](C)C4)cc3F)cn2)CC1 [Example 661, N-[4-fluoro-5-[2-(4-propan-2-ylpiperazin-1-yl)pyrimidin-5-yl]-2-[(3R,5S)-3,4,5-trimethylpiperazin-1-yl]phenyl]-1-methyl-6-oxo-4-(trifluoromethyl)pyridine-3-carboxamide] | 3.23
CC1CN(c2cc(F)c(C3=CCN(c4ncc(C#N)s4)CC3)cc2NC(=O)c2c[nH]c(=O)cc2C(F)F)CCN1C (stereo in doubt) [Example 686, N-[5-[1-(5-cyano-1,3-thiazol-2-yl)-3,6-dihydro-2H-pyridin-4-yl]-4-fluoro-2-[(3R)-3,4-dimethylpiperazin-1-yl]phenyl]-4-(difluoromethyl)-6-oxo-1H-pyridine-3-carboxamide] | 1.99
C[C@@H]1CN(c2cc(F)c(-c3cc(C(=O)NC(C)(C)CC(C)(C)C)c(F)cc3F)cc2NC(=O)c2c[nH]c(=O)cc2C(F)F)C[C@H](C)N1C [Example 627, 4-(difluoromethyl)-N-[5-[2,4-difluoro-5-(2,4,4-trimethylpentan-2-ylcarbamoyl)phenyl]-4-fluoro-2-[(3R,5S)-3,4,5-trimethylpiperazin-1-yl]phenyl]-6-oxo-1H-pyridine-3-carboxamide] | 23.3
CCN(C)[C@@H]1CCN(c2cc(F)c(-c3cnc(N4C[C@@H](C)O[C@@H](C)C4)nc3)cc2NC(=O)c2cn(C)c(=O)cc2C(F)(F)F)C1 (racemic) [Example 427, N-[4-fluoro-5-[2-[(2R,6S)-2,6-dimethylmorpholin-4-yl]pyrimidin-5-yl]-2-[(3S)-3-[ethyl(methyl)amino]pyrrolidin-1-yl]phenyl]-1-methyl-6-oxo-4-(trifluoromethyl)pyridine-3-carboxamide] | 5.59
N-[5-[1-(2-cyanopyrimidin-4-yl)-3,6-dihydro-2H-pyridin-5-yl]-4-fluoro-2-[(3R)-3,4-dimethylpiperazin-1-yl]phenyl]-4-(difluoromethyl)-6-oxo-1H-pyridine-3-carboxamide [Example 740] | 4.47
C[C@@H]1CN(c2ccc(-c3cc(NC(=O)c4cn(C)c(=O)cc4C(F)F)c(N4C[C@@H](C)N(C)[C@@H](C)C4)cc3F)cn2)CCO1 [Example 542, 4-(difluoromethyl)-N-[4-fluoro-5-[6-[(2R)-2-methylmorpholin-4-yl]pyridin-3-yl]-2-[(3R,5S)-3,4,5-trimethylpiperazin-1-yl]phenyl]-1-methyl-6-oxopyridine-3-carboxamide] | 5.53
